The assay deals with SARS-CoV-2 dimerization loop (DL) RNA. The assay is classed as binding. As to conditions: 2.5 μM peptide; 0.010 M HEPES pH 7.0, 0.30 M NaCl; average of two replicates.
For the substance “MGCAQLRKQL(pCaaF)Y (sidechain bridge or staple) [Peptide K1A]”, the “SPR response relative to parent peptide MG-FSS-m1” value is “comparable”.

Regarding “MGCKALRKQL(pCaaF)Y (sidechain bridge or staple) [Peptide Q2A]”, the “SPR response relative to parent peptide MG-FSS-m1” value is reported as “substantially lower”. Turning to “MGCKQARKQL(pCaaF)Y (sidechain bridge or staple) [Peptide L3A]”, the “SPR response relative to parent peptide MG-FSS-m1” value was “substantially lower”.

For “MGCKQLAKQL(pCaaF)Y (sidechain bridge or staple) [Peptide R4A]”, the “SPR response relative to parent peptide MG-FSS-m1” value is “comparable”.

As to “MGCKQLRAQL(pCaaF)Y (sidechain bridge or staple) [Peptide K5A]”, the “SPR response relative to parent peptide MG-FSS-m1” value is listed as “comparable”.

Regarding “MGCKQLRKAL(pCaaF)Y (sidechain bridge or staple) [Peptide Q6A]”, the “SPR response relative to parent peptide MG-FSS-m1” value is “substantially higher”. Then “MGCKQLRKQA(pCaaF)Y (sidechain bridge or staple) [Peptide L7A]”, with “lower”.

Values taken from publication PMC11575553 (Chemical Science, 2024).
